{
  "source": "patent US20110104713A1",
  "about": "“PRODUCTS AND PROCESSES FOR MODULATING PEPTIDE-PEPTIDE BINDING DOMAIN INTERACTIONS” (priority 2002, published 2011)",
  "key": {"[1]": {"system": "centrosomal localization of GST-Plk-1 PBD in U2OS cells", "test": "Centrosomal localization of GST-Plk-1 PBD in permeabilized U2OS cells with peptide competition", "type": "cell-based, human", "conditions": "250 μM peptide; nocodazole-arrested, Streptolysin-O permeabilized U2OS cells", "procedure": "U2OS cells were cultured in 8-well chamber slides and arrested at G2/M by treatment with nocodazole (50 ng/mL) for 14 hours. After rinsing with PBS, cells were incubated with 4 μM GST-Plk-1 PBD (residues 326-603) and Streptolysin-O (1 U/ml) in permeabilization buffer (25 mM HEPES (pH 7.9), 100 mM KCl, 3 mM NaCl, 200 mM sucrose, 20 mM NaF, 1 mM NaOVO4) for 20 minutes at 37° C. Cells were fixed in 3% paraformaldehyde/2% sucrose for 10 minutes at room temperature and extracted with a 0.5% Triton X-100 solution containing 20 mM Tris-HCl (pH 7.4), 50 mM NaCl, 300 mM sucrose, and 3 mM MgCl2 for 10 minutes at RT. […] Cells were examined using a Nikon Eclipse E600 fluorescence microscope equipped with a SPOT RTcamera and software (Diagnostic Instruments, Livingston, Scotland). Images were analyzed using NIH Image. […]\nThe normalized intensity of centrosome-specific Alexa Fluor 488 staining (N.I.AF488) or Texas Red staining (N.I.TR) above background was defined as ([Icentrosome−1cell]/Icell) where Icentrosome indicates the fluorescence intensity of either Alexa-Fluor 488 or Texas Red averaged over the centrosome and Icell indicates the overall fluorescence intensity averaged over the entire cell. The relative GST-PBD/γ-tubulin specific staining was then calculated as N.I.AF488/NITR."}, "GST-Plk1 (full-length)": {"biological_target": "T1, GST-Plk1 (full-length) (Homo sapiens, UniProt P53350)", "T1 construct": "SF9 cells infected with baculoviral GST-Plk1 (full-length) were lysed; made in house; host or cells: SF9 insect cells (baculovirus)", "T1 sequence (P53350 whole entry)": "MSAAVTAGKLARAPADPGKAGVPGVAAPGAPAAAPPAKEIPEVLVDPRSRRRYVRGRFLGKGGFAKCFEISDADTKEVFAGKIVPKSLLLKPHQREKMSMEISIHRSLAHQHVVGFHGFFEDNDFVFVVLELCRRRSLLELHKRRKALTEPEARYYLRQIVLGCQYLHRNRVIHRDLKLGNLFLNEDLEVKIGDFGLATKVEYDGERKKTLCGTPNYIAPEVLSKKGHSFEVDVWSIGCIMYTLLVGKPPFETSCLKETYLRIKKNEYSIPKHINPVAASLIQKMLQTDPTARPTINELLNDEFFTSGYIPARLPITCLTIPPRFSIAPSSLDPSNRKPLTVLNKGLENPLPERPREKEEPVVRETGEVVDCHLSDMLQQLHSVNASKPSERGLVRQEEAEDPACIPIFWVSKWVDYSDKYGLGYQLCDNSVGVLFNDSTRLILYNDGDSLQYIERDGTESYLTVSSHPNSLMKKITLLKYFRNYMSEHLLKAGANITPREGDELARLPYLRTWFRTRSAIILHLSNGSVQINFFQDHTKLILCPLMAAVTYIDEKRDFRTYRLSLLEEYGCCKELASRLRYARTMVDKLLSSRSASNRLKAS", "test": "Plk1 kinase assay (32P-incorporation into casein) with peptide activation", "type": "biochemical", "conditions": "250 μM peptide pre-incubated 5 minutes at room temperature; three independent experiments", "procedure": "SF9 cells infected with baculoviral GST-Plk1 (full-length) were lysed in 20 mM Hepes/KOH (pH 7.5), 135 mM NaCl, 1% NP40, 5 mM EGTA, 5 μM 13-mercaptoethanol, 35 mM NaF, 0.5 mM Na3VO4, 20 mM β-glycerolphosphate, 3 μM microcystin, 1 μM okadaic acid, 10 μg/mL pepstatin, 10 μg/mL leupeptin, and 10 μg/mL aprotinin. Lysates were incubated for 2 hours at 4° C. with glutathione beads, which were subsequently washed five times with 20 mM Hepes/KOH (pH 7.5), 415 mM NaCl, 0.1% CHAPS, 5 mM EGTA, 5 μM β-mercaptoethanol, 35 mM NaF, and 0.5 mM Na3VO4 at 4° C. Bound proteins were eluted with a buffer containing 30 mM glutathione, 50 mM Hepes/KOH (pH 8.0), 25 mM NaCl, 2 mM MgCl2, 1 mM EGTA, and 5 μM β-mercaptoethanol and dialyzed against 10 mM Hepes, 10 mM NaCl, 1 mM EGTA, 1 mM DTT for 3 hours at 4° C. Kinase reactions were performed in 20 mM Hepes/KOH (pH7.5), 15 mM KCl, 10 mM MgCl2, 1 mM EGTA, 100 µM ATP, 5 μCi γ-[^32P]-ATP, 1 mM DTT, and […] casein for 15 minutes at 30° C. Reaction aliquots were removed at various time points, added to sample buffer, and boiled to arrest phosphorylation. ^32P-incorporation into casein was determined by SDS-PAGE electrophoresis, autoradiography, and densitometry using ImageQuant software (Molecular Dynamics). […]"}},
  "data": [
    {"substance": "MAGPMQ-S-T-P-LNGAKK (MAGPMQSTPLNGAKK) [PoloBoxtide-8T]", "values": [
      {"measurement": "effect of peptide on centrosomal localization of Plk-1 PBD", "setting": "[1]", "result": "unaffected"},
      {"measurement": "enhancement of Plk1 kinase activity (rate of casein phosphorylation), factor", "setting": "GST-Plk1 (full-length)", "result": "had no effect"}
    ]}
  ]
}
